Calls of active or inactive are those of the source. No cut-off for these calls is given here.
Tests used:
SNU-423 = experiment: Antiproliferative activity against human SNU-423 cells assessed as inhibition of cell growth measured after 72 hrs by MTT assay; format: functional, cell-based; conditions: SNU-423, 72 h
Histone deacetylase 3 = Histone deacetylase 3 (Homo sapiens, UniProt O15379); experiment: Inhibition of HDAC3 (unknown origin) using Ac-peptide as a substrate pretreated for 15 mins followed by substrate addition
HepG2 [1] = experiment: Induction of cell cycle arrest in human HepG2 cells assessed as accumulation of cells in G2/M phase at 3 uM measured after 24 hrs by propidium iodide staining based flow cytometry analysis (reference value: 17.8 to 18.5%); format: functional
Bel-7402 = experiment: Antiproliferative activity against human Bel-7402 cells assessed as inhibition of cell growth measured after 72 hrs by MTT assay; format: functional, cell-based; conditions: Bel-7402, 72 h
HepG2 [2] = experiment: Induction of apoptosis in human HepG2 cells assessed as necrotic cells at 2.5 uM measured after 24 hrs by Annexin V-FITC/PI staining based flow cytometry analysis (Rvb= 0.082%); format: functional
[3] = molecular target: Histone deacetylase (Homo sapiens) (UniProt Q13547+O15379+Q9UBN7+Q92769+Q9UQL6+Q8WUI4+Q9BY41+Q96DB2+P56524+Q9UKV0+Q969S8); experiment: Inhibition of HDAC in human HepG2 cells assessed as upregulation of alpha-tubulin acetylation at 6 uM measured after 24 hrs by western blot analysis; format: cell-based
HepG2 [4] = experiment: Induction of apoptosis in human HepG2 cells assessed as live cells at 2.5 uM measured after 24 hrs by Annexin V-FITC/PI staining based flow cytometry analysis (Rvb= 84.6%); format: functional
HepG2 [5] = experiment: Induction of apoptosis in human HepG2 cells assessed as late apoptotic cells at 10 uM measured after 24 hrs by Annexin V-FITC/PI staining based flow cytometry analysis (Rvb= […]); format: functional
HepG2 [6] = experiment: Induction of apoptosis in human HepG2 cells assessed as early apoptotic cells at 2.5 uM measured after 24 hrs by Annexin V-FITC/PI staining based flow cytometry analysis (Rvb= 6.15%); format: functional
Huh-7 = experiment: cells; format: functional, cell-based; conditions: Homo sapiens, Huh-7, 72 h
Description: Antiproliferative activity against human Huh-7 cells assessed as inhibition of cell growth measured after 72 hrs by MTT assay

HepG2 [7] = experiment: Induction of apoptosis in human HepG2 cells assessed as live cells at 5 uM measured after 24 hrs by Annexin V-FITC/PI staining based flow cytometry analysis (Rvb= 84.6%); format: functional
PLC-PRF-5 = experiment: Antiproliferative activity against human PLC-PRF-5 cells assessed as inhibition of cell growth measured after 72 hrs by MTT assay; format: functional, cell-based; conditions: PLC-PRF-5, 72 h
CNE-2 = experiment: cells; format: functional, cell-based; conditions: Homo sapiens, CNE-2, 72 h
Description: Antiproliferative activity against human CNE-2 cells assessed as inhibition of cell growth measured after 72 hrs by MTT assay

in vitro = conditions: human, L02 cells versus HepG2 cells
Description: Selectivity index, ratio of IC50 for cytotoxicity against human L02 cells to IC50 for antiproliferative activity against human HepG2 cells

HeLa = experiment: cells; format: functional, cell-based; conditions: Homo sapiens, 72 h
Description: Antiproliferative activity against human HeLa cells assessed as inhibition of cell growth measured after 72 hrs by MTT assay

HepG2 [8] = experiment: Induction of apoptosis in human HepG2 cells assessed as live cells at 10 uM measured after 24 hrs by Annexin V-FITC/PI staining based flow cytometry analysis (Rvb= 84.6%); format: functional
Histone deacetylase 1 = Histone deacetylase 1 (Homo sapiens, UniProt Q13547); experiment: Inhibition of HDAC1 (unknown origin) using Ac-peptide as a substrate pretreated for 15 mins followed by substrate addition
L02 = experiment: cells; format: ADME, cell-based; conditions: Homo sapiens, L02, 72 h
Description: Cytotoxicity against human L02 cells assessed as reduction in cell viability measured after 72 hrs by MTT assay

HepG2 [9] = experiment: Induction of cell cycle arrest in human HepG2 cells assessed as accumulation of cells in G0/G1 phase at 3 uM measured after 24 hrs by propidium iodide staining based flow cytometry analysis (reference value: 52.7 to 63.2%); format: functional
HepG2 [10] = experiment: Induction of cell cycle arrest in human HepG2 cells assessed as accumulation of cells in G0/G1 phase at 6 uM measured after 24 hrs by propidium iodide staining based flow cytometry analysis (reference value: 52.7 to 63.2%); format: functional
HepG2 [11] = experiment: Induction of cell cycle arrest in human HepG2 cells assessed as accumulation of cells in S phase at 3 uM measured after 24 hrs by propidium iodide staining based flow cytometry analysis (reference value: 17 to 26.4%); format: functional
MCF7 = experiment: cells; format: functional, cell-based; conditions: Homo sapiens, MCF7, 72 h
Description: Antiproliferative activity against human MCF7 cells assessed as inhibition of cell growth measured after 72 hrs by MTT assay

A549 = experiment: cells; format: functional, cell-based; conditions: Homo sapiens, A549, 72 h
Description: Antiproliferative activity against human A549 cells assessed as inhibition of cell growth measured after 72 hrs by MTT assay

MDA-MB-231 = experiment: cells; format: functional, cell-based; conditions: Homo sapiens, MDA-MB-231, 72 h
Description: Antiproliferative activity against human MDA-MB-231 cells assessed as inhibition of cell growth measured after 72 hrs by MTT assay

HepG2 [12] = experiment: Induction of apoptosis in human HepG2 cells assessed as early apoptotic cells at 5 uM measured after 24 hrs by Annexin V-FITC/PI staining based flow cytometry analysis (Rvb= 6.15%); format: functional
HepG2 [13] = experiment: Induction of apoptosis in human HepG2 cells assessed as dead cells at 10 uM measured after 24 hrs by Annexin V-FITC/PI staining based flow cytometry analysis (Rvb= 0.082%); format: functional

Chain of Histone deacetylase 1 (Q13547 whole entry): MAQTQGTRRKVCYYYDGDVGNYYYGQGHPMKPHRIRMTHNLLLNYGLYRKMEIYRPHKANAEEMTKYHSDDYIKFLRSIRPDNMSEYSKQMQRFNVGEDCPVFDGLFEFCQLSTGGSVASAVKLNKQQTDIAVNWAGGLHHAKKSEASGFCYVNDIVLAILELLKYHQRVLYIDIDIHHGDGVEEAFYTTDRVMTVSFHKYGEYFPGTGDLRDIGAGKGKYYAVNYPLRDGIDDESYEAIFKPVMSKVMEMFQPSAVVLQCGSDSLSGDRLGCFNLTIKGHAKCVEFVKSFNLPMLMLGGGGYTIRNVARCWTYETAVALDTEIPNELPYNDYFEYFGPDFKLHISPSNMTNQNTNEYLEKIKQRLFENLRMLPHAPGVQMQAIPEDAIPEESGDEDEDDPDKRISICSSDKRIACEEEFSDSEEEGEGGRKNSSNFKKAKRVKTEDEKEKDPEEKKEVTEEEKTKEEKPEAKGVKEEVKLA
Chain of Histone deacetylase 3 (O15379 whole entry): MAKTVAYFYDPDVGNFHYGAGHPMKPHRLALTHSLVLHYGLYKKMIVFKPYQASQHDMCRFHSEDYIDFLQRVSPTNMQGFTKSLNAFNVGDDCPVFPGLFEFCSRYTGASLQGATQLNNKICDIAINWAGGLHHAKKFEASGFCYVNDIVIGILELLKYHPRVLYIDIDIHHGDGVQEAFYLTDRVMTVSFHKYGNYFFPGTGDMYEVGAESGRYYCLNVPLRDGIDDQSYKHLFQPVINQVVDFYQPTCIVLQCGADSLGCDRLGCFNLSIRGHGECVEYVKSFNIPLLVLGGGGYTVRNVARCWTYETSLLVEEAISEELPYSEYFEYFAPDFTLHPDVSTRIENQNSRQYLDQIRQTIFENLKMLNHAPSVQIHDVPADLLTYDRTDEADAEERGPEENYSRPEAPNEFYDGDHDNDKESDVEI

SMILES | IC50 (SNU-423) | IC50 (Histone deacetylase 3) | Activity (HepG2 [1]) | IC50 (Bel-7402) | Activity (HepG2 [2]) | inhibition [3] | Activity (HepG2 [4]) | Activity (HepG2 [5]) | Activity (HepG2 [6]) | IC50 (Huh-7) | Activity (HepG2 [7]) | IC50 (PLC-PRF-5) | IC50 (CNE-2) | selectivity ratio (in vitro) | IC50 (HeLa) | Activity (HepG2 [8]) | IC50 (Histone deacetylase 1) | IC50 (L02) | Activity (HepG2 [9]) | Activity (HepG2 [10]) | also measured
Nc1nc2cc(-c3nn(CCCCCCC(=O)NO)c4ncnc(N)c34)ccc2o1 | 6.1 µM | 0.0046 µM | 10.8% | > 50 µM | 0.15% | Active | 63.7% | 27.2% | 28.1% | 5.71 µM | 69.6% | > 50 µM | 4.36 µM | 15.4 | 6.41 µM | 42.2% | 0.0031 µM | 24.8 µM | 70.4% | 73.3% | Activity (HepG2 [11]): 15.2%; IC50 (MCF7): 11.8 µM; IC50 (A549): 33 µM; IC50 (MDA-MB-231): 8.43 µM; Activity (HepG2 [12]): 15.3%; Activity (HepG2 [13]): 0.26%
Nc1ncnc2c1c(-c1cnc3[nH]ccc3c1)nn2CCCCCCCCC(=O)NO | 7.5 µM | 0.034 µM | 18.6% | 18.9 µM | 0.56% | Active | 69.7% | 17.8% | 17.4% | 7.38 µM | 77.5% | 14.9 µM | 2.27 µM | 11.5 | 7.47 µM | 62% | 0.02 µM | 35.1 µM | 64.5% | 66.6% | Activity (HepG2 [11]): 16.2%; IC50 (MCF7): 24.7 µM; IC50 (A549): 12.2 µM; IC50 (MDA-MB-231): 11 µM; Activity (HepG2 [12]): 12%; Activity (HepG2 [13]): 0.56%

— ChEMBL document CHEMBL4842376, “Design, synthesis and biological evaluation of novel hybrids targeting mTOR and HDACs for potential treatment of hepatocellular carcinoma” (Eur J Med Chem, 2021)
